Measurements from patent US20170143647A1, “INTESTINAL FLORA IMPROVING COMPOSITION CONTAINING ASTAXANTHIN AND ITS USE” (THE DOSHISHA, priority 2013, published 2017).
Entries after “also recorded” stand apart in the source; their conditions may differ.

Legend:
[1] = test system: Streptococcus group (lactic acid bacteria); test: Real-time PCR of fecal DNA, Streptococcus group; format: in vivo, ICR mice
Procedure: (§1) A change in intestinal flora when a high-fat diet was fed to mice, and the effect of astaxanthin on intestinal flora were determined using a real-time PCR method.
(§2) The test substance (astaxanthin) was added to an ordinary diet (“Labo MR Stock” manufactured by Nosan Corporation (Nishi-ku, Yokohama)) and a high-fat diet (“HFD-60” Oriental Yeast Co., Ltd. (Itabashi-ku, Tokyo)) so that the content thereof was 0.02%.
(§3) A commercially-available product “AstaReal Oil 50F” (manufactured by Fuji Chemical Industries Co., Ltd.) was used as astaxanthin.
(§4) Twenty 4-week-old ICR mice were respectively kept in different cages, and habituated for 1 week.
(§5) After completion of habituation, the weight of each mouse was measured, and the mice were divided into an ordinary diet group (group C), an ordinary diet+astaxanthin group (group CA), a high-fat diet group (group H), and a high-fat diet+astaxanthin group (group HA) (five mice per group). […]
(§6) The DNA solution was 100-fold diluted (Lactobacillus, Streptococcus, Clostridium coccoides, and Clostridium leptum), and the final concentration was adjusted to […] (other targets). […] The primer sequence was analyzed using the method of Matsuki et al. or Endo et al. […]
(§7) Regarding a comparison as to the presence or absence of astaxanthin, the bacterial count change ratio was analyzed by Mann-Whitney's U test (one-sided test).

[2] = test system: Clostridium coccoides group; test: Real-time PCR of fecal DNA, Clostridium coccoides group; format: in vivo, ICR mice
Procedure: as §1, §2, §3, §4, §5, §6, §7

[3] = eight-week treatment; cited from earlier work
[4] = test system: Clostridium leptum group; test: Real-time PCR of fecal DNA, Clostridium leptum group; format: in vivo, ICR mice; conditions: group HA vs group H
Procedure: as §1, §2, §3, §4
(§8) After completion of habituation, the weight of each mouse was measured, and the mice were divided into an ordinary diet group (group C), an ordinary diet+astaxanthin group (group CA), a high-fat diet group (group H), and a high-fat diet+astaxanthin group (group HA) (five mice per group).
(§9) The feces of the mice were collected over 24 hours on the final day of habituation (Day 0). […]
as §6
(§10) The mean value of each group was analyzed by Tukey's multiple comparison test. […]

[5] = taken orally; cited from earlier work
[6] = Change in body weight of mice fed ordinary or high-fat diet with or without astaxanthin; format: in vivo, ICR mice; conditions: 0.02% astaxanthin in ordinary or high-fat diet, weight measured once a week
Procedure: as §2, §3, §4, §8
The diet was fed to each group from Day 1, and the weight of each mouse was measured once a week.
The ordinary diet was fed once a week, and the high-fat diet was fed every other day (the high-fat diet was returned to room temperature on the day before the feeding).
The mean value of each group was analyzed by Tukey's multiple comparison test.

[7] = test system: Lactobacillus group (lactic acid bacteria); test: Real-time PCR of fecal DNA, Lactobacillus group; format: in vivo, ICR mice
Procedure: as §1, §2, §3, §4, §5, §6, §7

[8] = test system: intestinal flora; test: Effect of astaxanthin on intestinal flora of mice fed a high-fat diet (overall); format: in vivo; conditions: intake of astaxanthin, high-fat diet fed to a mouse
Procedure: A change in intestinal flora when a high-fat diet was fed to mice, and the effect of astaxanthin on intestinal flora were determined using a real-time PCR method. The test substance (astaxanthin) was added to an ordinary diet (“Labo MR Stock” manufactured by Nosan Corporation (Nishi-ku, Yokohama)) and a high-fat diet (“HFD-60” Oriental Yeast Co., Ltd. (Itabashi-ku, Tokyo)) so that the content thereof was 0.02%. A commercially-available product “[…] Oil […]” (manufactured by Fuji Chemical Industries Co., Ltd.) was used as astaxanthin. Twenty 4-week-old ICR mice were respectively kept in different cages, and habituated for 1 week. After completion of habituation, the weight of each mouse was measured, and the mice were divided into an ordinary diet group (group C), an ordinary diet+astaxanthin group (group CA), a high-fat diet group (group H), and a high-fat diet+astaxanthin group (group HA) (five mice per group). The DNA solution was 100-fold diluted (Lactobacillus, Streptococcus, Clostridium coccoides, and Clostridium leptum), and the final concentration was adjusted to […] (other targets). […] The primer sequence was analyzed using the method of Matsuki et al. or Endo et al. The real-time PCR assay was performed on Bacteroides, Bifidobacterium (bifidobacteria), Prevotella, Lactobacillus, Streptococcus, Clostridium coccoides, and Clostridium leptum.

[9] = test system: bacteria that belong to the genus Bacteroides; test: Real-time PCR of fecal DNA, genus Bacteroides; format: in vivo, ICR mice; conditions: group HA (high-fat diet + astaxanthin), Day 14, FIG. 9
Procedure: as §1, §2, §3, §4, §8, §9, §6, §10

With `CC1=C(/C=C/C(C)=C/C=C/C(C)=C/C=C/C=C(C)/C=C/C=C(C)/C=C/C2=C(C)C(=O)C(O)CC2(C)C)C(C)(C)CC(O)C1=O` (stereo not drawn) [astaxanthin, 3,3′-dihydroxy-β,β-carotene-4,4′-dione] the “rate of increase in bacterial count of the Streptococcus group, between the high-fat diet groups” value ([1]; group H vs HA, p=0.044) was “significant difference”, the “bacterial count of the Streptococcus group” value ([1]; group HA (high-fat diet + astaxanthin), Day 28) was “comparable to those of the ordinary diet group; also recorded: increased” and the “growth of the Clostridium coccoides group” value ([2]; group H vs HA, Day 14 and Day 28, FIG. 7) was “suppressed the growth”. The “rate of increase in the bacterial count of the Clostridium coccoides group” value ([2]; high-fat diet, addition of astaxanthin, p=0.029) was “decreased”, the “efficacy reported in Non-Patent Literature 1” value [3] was “enhances the antioxidant potential, decreases blood pressure, and improves constipation and a climacteric complaint” and the “bacterial count of the Clostridium leptum group” value ([4]; Day 14, p<0.001) was “temporary increase”. For the same molecule, the “bacterial count of the Clostridium leptum group” value ([4]; Day 28) was “no significant difference”, the “astaxanthin absorbed in the small intestine” value [5] was “about 5%” and the “change in body weight, groups fed astaxanthin (CA, HA) vs groups not fed astaxanthin (C, H)” value [6] was “No significant difference”. For the same molecule, the “rate of increase in the bacterial count of the Lactobacillus group” value ([7]; addition of 0.02% astaxanthin to diet, p=0.031) was “increased”, the “bacterial count of the Lactobacillus group” value ([7]; group C vs CA and group H vs HA, FIG. 4) was “increased” and the “effect on intestinal flora” value [8] was “improves intestinal flora; also recorded: controls the disorder of intestinal flora”. For the same molecule, the “bacterial count of bacteria that belong to the genus Bacteroides” value [9] was “did not show such a temporary increase; also recorded: suppressed a temporary increase; also recorded: did not show a significant increase”.
